Reference: paper PMC6934184, “Selective DNA-PKcs inhibition extends the therapeutic index of localized radiotherapy and chemotherapy” (The Journal of Clinical Investigation, 2019)

Target: T1, TYK2 (Homo sapiens, UniProt P29597)
T1 construct: purchased Thermo Fisher Scientific (Life Technologies) SelectScreen
Test: SelectScreen Z'LYTE
Format: biochemical
Outline: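 SelectScreen broad panel; activity (Z'LYTE, Adapta) plus binding formats. ATP: Km app for CSF1R Z'LYTE; 10 for CAMK1 Adapta. Readout = % per kinase.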

T1 sequence (P29597 whole entry): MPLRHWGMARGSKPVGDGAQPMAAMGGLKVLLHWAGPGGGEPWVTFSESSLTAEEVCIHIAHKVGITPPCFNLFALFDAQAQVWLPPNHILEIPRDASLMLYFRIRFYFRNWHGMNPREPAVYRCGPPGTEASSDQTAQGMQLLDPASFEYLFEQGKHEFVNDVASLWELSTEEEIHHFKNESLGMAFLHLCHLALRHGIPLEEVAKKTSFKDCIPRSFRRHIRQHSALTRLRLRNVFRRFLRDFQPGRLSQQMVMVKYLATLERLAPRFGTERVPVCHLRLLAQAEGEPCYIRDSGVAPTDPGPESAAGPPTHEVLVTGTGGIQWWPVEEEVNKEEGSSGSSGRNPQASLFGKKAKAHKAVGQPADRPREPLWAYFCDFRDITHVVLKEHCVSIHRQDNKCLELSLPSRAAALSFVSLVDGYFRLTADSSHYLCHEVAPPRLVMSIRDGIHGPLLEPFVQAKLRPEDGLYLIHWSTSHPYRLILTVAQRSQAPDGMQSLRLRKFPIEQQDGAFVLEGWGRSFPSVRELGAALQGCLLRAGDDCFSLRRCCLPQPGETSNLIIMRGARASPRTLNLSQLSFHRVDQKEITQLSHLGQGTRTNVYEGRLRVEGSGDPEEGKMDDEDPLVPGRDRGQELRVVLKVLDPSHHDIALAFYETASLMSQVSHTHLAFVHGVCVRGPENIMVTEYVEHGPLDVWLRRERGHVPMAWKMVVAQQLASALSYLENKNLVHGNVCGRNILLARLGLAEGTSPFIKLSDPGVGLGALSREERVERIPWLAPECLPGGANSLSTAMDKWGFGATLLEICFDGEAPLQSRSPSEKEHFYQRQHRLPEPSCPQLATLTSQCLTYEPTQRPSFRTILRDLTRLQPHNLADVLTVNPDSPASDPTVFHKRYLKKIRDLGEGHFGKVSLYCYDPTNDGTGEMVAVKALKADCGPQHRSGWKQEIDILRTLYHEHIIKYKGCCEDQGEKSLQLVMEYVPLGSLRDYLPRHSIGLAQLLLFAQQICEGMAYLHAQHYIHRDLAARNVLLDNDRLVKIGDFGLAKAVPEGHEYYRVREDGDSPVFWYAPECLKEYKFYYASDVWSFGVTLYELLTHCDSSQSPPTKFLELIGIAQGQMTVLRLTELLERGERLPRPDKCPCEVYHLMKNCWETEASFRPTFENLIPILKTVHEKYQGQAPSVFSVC

## CN(C(=O)CN1CCOCC1)c1ccc2sc3c(-c4cccc5c(=O)cc(N6CC7CCC(C6)O7)oc45)cccc3c2c1 [NU5455]
  inhibition at 1 µM: 4.2%
